From patent US11999702B1, “4,5-bis(4-chlorophenyl)-1-hexyl-2-(3,4-dimethoxyphenyl)-1H-imidazole as an antimicrobial compound” (KING FAISAL UNIVERSITY, priority 2023, dated 2024)

Key:
Assay type in all cases: cell-based
Settings in all cases: after 10, 20, 40 and 60 minutes at all dilutions 1:100, 1:200, 1:400, 1:800
Pseudomonas aeruginosa = experiment: Antimicrobial testing by agar dilution, Pseudomonas aeruginosa
Description: (§1) The antimicrobial properties of the 4,5-bis(4-chlorophenyl)-1-hexyl-2-(3,4-dimethoxyphenyl)-1H-imidazole (5) were studied by the method of agar dilution. Test solutions of each compound were prepared in concentration of 1% using dimethylformamide as a solvent then they are diluted in physiological solution to obtain the final experimental dilutions 1:100, 1:200, 1:400, 1:800. The effect of these substances were compared with furacillin in a controllable study. The testing microbes used were gram positive bacteria Staphylococcus aureus, gram negative bacteria Escherichia coli, Pseudomonas aeruginosa and Candida albicans fungi were taken. The experiments used for this survey were meat-pentonlu agar (EPA) for cultivation of bacteria and Saburo environment for fungi. Each experiment used 1 ml of test solution on each plate 500 min. Add 2 drops of emulsified with microbes feel. All experimental samples were taken from the agar after 10, 20, 40, 60 minutes in the environment on the basis of Patrk planted. Bacteria were cultivated at a temperature of 37° C. for 1 day and the mushroom was kept in a thermostat for […] at a temperature of 28° C. in the. Then results were checked.

Escherichia coli = experiment: Antimicrobial testing by agar dilution, Escherichia coli
Description: as §1

Staphylococcus aureus = experiment: Antimicrobial testing by agar dilution, Staphylococcus aureus
Description: as §1

Candida albicans = experiment: Antimicrobial testing by agar dilution, Candida albicans
Description: as §1

Measured: inhibition activity

CCCCCCn1c(-c2ccc(OC)c(OC)c2)nc(-c2ccc(Cl)cc2)c1-c1ccc(Cl)cc1 [4,5-bis(4-chlorophenyl)-1-hexyl-2-(3,4-dimethoxyphenyl)-1H-imidazole]
highest inhibition activity: Pseudomonas aeruginosa | Escherichia coli | Staphylococcus aureus | Candida albicans
